One assay deals with Plasmodium falciparum. Kind of assay: Antimalarial activity against wild type Plasmodium falciparum 3D7 assessed as growth inhibition. Type of assay: functional, organism-based.
The nature of assay [1]: Inhibition of Plasmodium falciparum 3D7 cytochrome bc1 complex assessed as cytochrome c reduction by spectrophotometric analysis in presence of decylubiquinol.
[2] abbreviates: Plasmodium falciparum, 3D7, read-out: IC50.

Bounds are passed on as bounds.

What is called IC50 is the concentration that gives 50% inhibition. Take `CCOC(=O)c1c[nH]c2ccc(Oc3ccccc3)cc2c1=O`: the IC50 with Plasmodium falciparum (setting [2]) amounted to 164 nM.
For `CCOC(=O)c1c[nH]c2cc(Oc3ccccc3)ccc2c1=O`, the IC50 in the assay on Plasmodium falciparum (setting [2]) came to 19.3 nM.
As for `CCOC(=O)c1c[nH]c2cc(Cc3ccccc3)ccc2c1=O`, the IC50 in the assay with Plasmodium falciparum (setting [2]) was 4.57 nM.
`CCOC(=O)c1c[nH]c2ccc(OCc3ccccc3)cc2c1=O`: in the assay with Plasmodium falciparum, the IC50 result is reported as “ND(Insoluble)”.
Take `CCOC(=O)c1c[nH]c2cc(OCc3ccccc3)ccc2c1=O`: the IC50 result with Plasmodium falciparum is given as “ND(Insoluble)”.
As to `CCOC(=O)c1c[nH]c2ccc(Oc3ccc(OC(F)(F)F)cc3)cc2c1=O`, the IC50 in the assay on Plasmodium falciparum (setting [2]) came to 230 nM.
Consider `CCOC(=O)c1c[nH]c2cc(Oc3ccc(OC(F)(F)F)cc3)ccc2c1=O`, for which the IC50 with Plasmodium falciparum (setting [2]) is 5.3 nM.
Turning to `CCOC(=O)c1c[nH]c2ccc(Cc3ccc(OC(F)(F)F)cc3)cc2c1=O`, in the assay on Plasmodium falciparum (setting [2]), the IC50 turned out to be 142 nM.
As a reminder, the EC50 is the concentration at which the effect is half-maximal. With `CCOC(=O)c1c[nH]c2cc(Cc3ccc(OC(F)(F)F)cc3)ccc2c1=O`, the IC50 with Plasmodium falciparum (setting [2]) is 0.46 nM. Moreover, the EC50 in assay [1] turned out to be 1.3 nM.
Consider `CCOC(=O)c1c[nH]c2ccc(OCc3ccc(OC(F)(F)F)cc3)cc2c1=O`, for which the IC50 with Plasmodium falciparum (setting [2]) was found to be 675 nM.
On the same count and under the same terms, the same measure for `CCOC(=O)c1c[nH]c2cc(OCc3ccc(OC(F)(F)F)cc3)ccc2c1=O`: 5 nM; for `N#Cc1c[nH]c2ccc(Oc3ccccc3)cc2c1=O`: above 10000 nM.
Consider `N#Cc1c[nH]c2cc(Oc3ccccc3)ccc2c1=O`, for which, in the assay with Plasmodium falciparum (setting [2]), the IC50 worked out at 8100 nM.
Consider `O=c1cc[nH]c2ccc(Oc3ccccc3)cc12`, for which the IC50 in the assay on Plasmodium falciparum (setting [2]) came to 4700 nM.
With `O=c1cc[nH]c2cc(Oc3ccccc3)ccc12`, the IC50 with Plasmodium falciparum (setting [2]) was determined as 6720 nM.
`CC(C)OC(=O)c1c[nH]c2ccc(Oc3ccccc3)cc2c1=O`: in the assay with Plasmodium falciparum (setting [2]), the IC50 stood at 184 nM.
`CC(C)OC(=O)c1c[nH]c2cc(Oc3ccccc3)ccc2c1=O`: the IC50 in the assay with Plasmodium falciparum (setting [2]) worked out at 8.45 nM.
Consider `O=C(OC1CCCCC1)c1c[nH]c2ccc(Oc3ccccc3)cc2c1=O`, for which the IC50 in the assay with Plasmodium falciparum (setting [2]) amounted to 1820 nM.
As to `O=C(OC1CCCCC1)c1c[nH]c2cc(Oc3ccccc3)ccc2c1=O`, the IC50 with Plasmodium falciparum (setting [2]) worked out at 29.6 nM.
As for `CCOC(=O)c1c[nH]c2ccc(Cc3ccccc3)cc2c1=O`, in the assay with Plasmodium falciparum (setting [2]), the IC50 was 40.4 nM.
With `O=C1C(O)=C([C@H]2CC[C@H](c3ccc(Cl)cc3)CC2)C(=O)c2ccccc21` [ATOVAQUONE], in assay [1], the EC50 is 3 nM.

For the origin of these results see ChEMBL document CHEMBL3217655, “The development of quinoloneesters as novel antimalarial agents targeting the Plasmodium falciparum bc1protein complex” (Medchemcomm, 2012).
